Experimental findings from PubChem BioAssay (NCI) are described below.

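Values below derive from 48-hour exposures of cells grown in 96-well plates, with endpoints linearly interpolated between the two concentrations bracketing the appropriate inhibition level. GI50: concentration for 50% inhibition of growth. TGI: concentration producing complete growth inhibition.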

Test systems include IGROV1 ovarian; HCT-116 colon; OVCAR-8 ovarian; SK-OV-3 ovarian; A549 NSCLC; NCI-H23 lung; COLO 205 colon; SK-MEL-28 melanoma; NCI-H522 lung.
Holding throughout (assay): DTP human tumour cell line panel, 48 h

Consider `COc1cc(Cl)c2c3c(c(C(=O)c4ccccc4)oc13)CCC2`, for which the TGI in the assay with IGROV1 ovarian, in the assay on HCT-116 colon, with OVCAR-8 ovarian, with SK-OV-3 ovarian, in the assay on A549 NSCLC and with NCI-H23 lung was > 100 µM throughout. The TGI with COLO 205 colon and in the assay on SK-MEL-28 melanoma was > 100 µM throughout.
Take `C1=C(c2ccccc2)SC=C(c2ccccc2)S1`: the TGI in the assay on IGROV1 ovarian, in the assay on HCT-116 colon, in the assay on OVCAR-8 ovarian, with SK-OV-3 ovarian, in the assay on A549 NSCLC and in the assay on NCI-H23 lung was > 100 µM each time. The TGI with COLO 205 colon and in the assay on SK-MEL-28 melanoma was > 100 µM in each case.
With `COc1ccc(C(=O)COc2cccc(/C=C3\CSc4ccc(Cl)cc4C3=O)c2)cc1`, the concentration for total growth inhibition (TGI) (usually the concentration at which net growth stops) in the assay with IGROV1 ovarian is 11.6 µM; in the assay with HCT-116 colon, 4.3 µM; in the assay with NCI-H522 lung, 4.9 µM; in the assay with OVCAR-8 ovarian, 56.3 µM; with SK-OV-3 ovarian, > 100 µM; with A549 NSCLC, > 100 µM. Besides, the total growth inhibition concentration (TGI) in the assay on NCI-H23 lung was 35 µM; in the assay on COLO 205 colon, 29 µM; with SK-MEL-28 melanoma it was 29 µM. In addition, the GI50 (usually the concentration that inhibits growth by half) with HCT-116 colon was 1.94 µM; with NCI-H522 lung it was 2.07 µM; in the assay on OVCAR-8 ovarian, 9.35 µM; in the assay on SK-OV-3 ovarian it was 25.9 µM; in the assay with A549 NSCLC, 64 µM; with NCI-H23 lung it was 14.2 µM. Moreover, the GI50 was 14.1 µM in the assay on COLO 205 colon and 15.4 µM in the assay with SK-MEL-28 melanoma.
Turning to `C=C1CC2(CCCC3(CC(=C)C(=O)O3)C2(C)C)OC1=O` (stereo not given), the TGI amounted to 23.5 µM with IGROV1 ovarian; 5.22 µM in the assay with HCT-116 colon; 3.7 µM with NCI-H522 lung; 7.55 µM with OVCAR-8 ovarian; 46.2 µM in the assay with SK-OV-3 ovarian; 28.9 µM in the assay with A549 NSCLC. The TGI in the assay with NCI-H23 lung is 12.1 µM; in the assay with COLO 205 colon, 4.61 µM; in the assay on SK-MEL-28 melanoma it was 4.61 µM.
Turning to `C=CCC(N[C@H](CO)c1ccccc1)c1cn(S(=O)(=O)c2ccc(C)cc2)c2ccccc12` (stereo not given in full), the GI50 with IGROV1 ovarian was 14.6 µM; in the assay on HCT-116 colon, 17 µM; with NCI-H522 lung, 18.6 µM; in the assay with OVCAR-8 ovarian, 10.8 µM; with SK-OV-3 ovarian, 59.7 µM; with A549 NSCLC it was 12.7 µM. Further, the values for the GI50 in the assay on NCI-H23 lung, with COLO 205 colon and in the assay on SK-MEL-28 melanoma were 20.3 µM, 35.3 µM and 41.6 µM, respectively. Moreover, the TGI in the assay on IGROV1 ovarian was 47.3 µM; with HCT-116 colon, 31.6 µM; in the assay on NCI-H522 lung it was 47.7 µM; in the assay with OVCAR-8 ovarian, 29.5 µM; in the assay on SK-OV-3 ovarian it was > 100 µM; in the assay with A549 NSCLC it was 32.4 µM. In addition, the TGI was 43.5 µM with NCI-H23 lung, > 100 µM in the assay with COLO 205 colon and > 100 µM in the assay with SK-MEL-28 melanoma.
As for `O=C(O)/C(=C\c1ccccc1Cl)S(=O)(=O)c1ccccc1`, the total growth inhibition concentration (TGI) with IGROV1 ovarian, in the assay with HCT-116 colon, in the assay with NCI-H522 lung, with OVCAR-8 ovarian, with SK-OV-3 ovarian and in the assay with A549 NSCLC was > 100 µM throughout. Also, in the assay with COLO 205 colon, the concentration for total growth inhibition (TGI) is > 100 µM.
In the case of `CC1CCP(=O)(c2ccccc2)CC1` (stereo not given), the TGI in the assay on IGROV1 ovarian, in the assay with OVCAR-8 ovarian, with SK-OV-3 ovarian, with A549 NSCLC, in the assay on NCI-H23 lung and with COLO 205 colon was > 100 µM in each case. Besides, the TGI in the assay with SK-MEL-28 melanoma was > 100 µM.
For `COC1C(O)C(C)OC(OC2CC3CCC4C(CCC5(C)C(C6=CC(=O)OC6)CCC45O)C3(O)C(OC(C)=O)C2)C1O` (stereo not given), the total growth inhibition concentration (TGI) came out at 15.7 µM with IGROV1 ovarian; 4.75 µM in the assay on HCT-116 colon; 3.21 µM in the assay with NCI-H522 lung; 5.35 µM in the assay on OVCAR-8 ovarian; 6.82 µM in the assay with SK-OV-3 ovarian; 1.41 µM in the assay with A549 NSCLC. For the same molecule, the TGI was 2.61 µM in the assay with NCI-H23 lung, 8.48 µM in the assay on COLO 205 colon and > 37.6 µM with SK-MEL-28 melanoma.
On to `O=C1c2ccn(CCCCN3CCCCC3)c2C(=O)c2c1c(O)c1ccccc1c2O`, for which the GI50 in the assay on IGROV1 ovarian was 11.1 µM; in the assay with HCT-116 colon, 7.76 µM; in the assay on NCI-H522 lung it was 11.1 µM; in the assay with OVCAR-8 ovarian, 3.52 µM; in the assay on SK-OV-3 ovarian it was 15.8 µM; in the assay on A549 NSCLC, 10.3 µM. The GI50 in the assay with NCI-H23 lung was 23.1 µM; in the assay with COLO 205 colon, 5.8 µM; with SK-MEL-28 melanoma it was 3.73 µM. The TGI with IGROV1 ovarian is > 100 µM; in the assay on HCT-116 colon it was > 53.9 µM; in the assay with NCI-H522 lung it was 56 µM; with OVCAR-8 ovarian, > 100 µM; with SK-OV-3 ovarian, 43.4 µM; in the assay with A549 NSCLC it was 33.9 µM. The total growth inhibition concentration (TGI) in the assay with NCI-H23 lung was > 48.3 µM; with COLO 205 colon, > 52.2 µM; with SK-MEL-28 melanoma, 44.2 µM.
`CN1CCN(c2ccc(NC3=C(Cl)C(=O)c4ncccc4C3=O)cc2C#N)CC1`: the GI50 in the assay with IGROV1 ovarian was 1.34 µM; in the assay on HCT-116 colon, 1.72 µM; in the assay on OVCAR-8 ovarian, 2.59 µM; with SK-OV-3 ovarian, 13.8 µM; in the assay on A549 NSCLC, 17.4 µM; with NCI-H23 lung, 2.15 µM. The GI50 with COLO 205 colon was 2.06 µM; in the assay with SK-MEL-28 melanoma it was 1.86 µM. Also, the total growth inhibition concentration (TGI) came to 2.82 µM with IGROV1 ovarian; 3.36 µM in the assay with HCT-116 colon; 9.37 µM in the assay with OVCAR-8 ovarian; 27.5 µM in the assay on SK-OV-3 ovarian; 33.7 µM in the assay with A549 NSCLC; 6.22 µM with NCI-H23 lung. Also, the total growth inhibition concentration (TGI) with COLO 205 colon was determined as 4.51 µM; in the assay on SK-MEL-28 melanoma, 3.26 µM.
For `CC(=O)[C-](C(C)=O)c1ccccc1.CC(=O)[C-](C(C)=O)c1ccccc1.CC[O-].CC[O-].[Ti+4]`, the GI50 in the assay with IGROV1 ovarian, in the assay with HCT-116 colon, in the assay on NCI-H522 lung, in the assay with OVCAR-8 ovarian, in the assay with SK-OV-3 ovarian and in the assay with A549 NSCLC was > 100 µM in each case. The GI50 with NCI-H23 lung, with COLO 205 colon and in the assay on SK-MEL-28 melanoma was > 100 µM in each case. Besides, the TGI in the assay with IGROV1 ovarian, with HCT-116 colon, with NCI-H522 lung, in the assay with OVCAR-8 ovarian, with SK-OV-3 ovarian and in the assay on A549 NSCLC was > 100 µM in each case. Moreover, the TGI with NCI-H23 lung, in the assay on COLO 205 colon and with SK-MEL-28 melanoma was > 100 µM throughout.
